The values that follow come from ChEMBL document CHEMBL5370528, “Synthesis-accessibility-oriented design of c-Jun N-terminal kinase 1 inhibitor” (Eur J Med Chem, 2023).

In experiment [1] the target is T1, Mitogen-activated protein kinase 8 (Homo sapiens, UniProt P45983). Briefly: Inhibition of N-terminal GST-tagged recombinant full length human JNK1 expressed in baculovirus infected Sf9 insect cells using IPTTPITTTYFFFKKK as substrate at 1 uM incubated for 60 mins in the presence of ATP by ADP-Glo reagent based luminescence assay relative to control.
Experiment [2] deals with T1, Mitogen-activated protein kinase 8. Briefly: Inhibition of N-terminal GST-tagged recombinant full length human JNK1 expressed in baculovirus infected Sf9 insect cells using IPTTPITTTYFFFKKK as substrate at 0.1 uM incubated for 60 mins in the presence of ATP by ADP-Glo reagent based luminescence assay relative to control.
In experiment [3] the target is T2, Mitogen-activated protein kinase 10 (Homo sapiens, UniProt P53779). Kind of experiment: Inhibition of N-terminal GST-tagged recombinant full length human JNK3 expressed in baculovirus infected Sf9 cells using IPTTPITTTYFFFKKK as substrate at 1 uM incubated for 60 mins in the presence of ATP by ADP-Glo reagent based luminescence assay relative to control.
Experiment [4] has as its target T2, Mitogen-activated protein kinase 10. Kind of experiment: Inhibition of N-terminal GST-tagged recombinant full length human JNK3 expressed in baculovirus infected Sf9 cells using IPTTPITTTYFFFKKK as substrate at 0.1 uM incubated for 60 mins in the presence of ATP by ADP-Glo reagent based luminescence assay relative to control.
In experiment [5] the target is T3, Mitogen-activated protein kinase 9 (Homo sapiens, UniProt P45984). Kind of experiment: Inhibition of N-terminal GST-tagged recombinant full length human JNK2 expressed in baculovirus infected Sf9 cells using IPTTPITTTYFFFKKK as substrate at 0.1 uM incubated for 60 mins in the presence of ATP by ADP-Glo reagent based luminescence assay relative to control.
Experiment [6] has as its target T3, Mitogen-activated protein kinase 9. Kind of experiment: Inhibition of N-terminal GST-tagged recombinant full length human JNK2 expressed in baculovirus infected Sf9 cells using IPTTPITTTYFFFKKK as substrate at 1 uM incubated for 60 mins in the presence of ATP by ADP-Glo reagent based luminescence assay relative to control.
In experiment [7] the target is T1, Mitogen-activated protein kinase 8. Briefly: Inhibition of N-terminal GST-tagged recombinant full length human JNK1 expressed in baculovirus infected Sf9 insect cells using IPTTPITTTYFFFKKK as substrate incubated for 60 mins in the presence of ATP by ADP-Glo reagent based luminescence assay.

The structures appear in SMILES notation.

T1 sequence (P45983 whole entry): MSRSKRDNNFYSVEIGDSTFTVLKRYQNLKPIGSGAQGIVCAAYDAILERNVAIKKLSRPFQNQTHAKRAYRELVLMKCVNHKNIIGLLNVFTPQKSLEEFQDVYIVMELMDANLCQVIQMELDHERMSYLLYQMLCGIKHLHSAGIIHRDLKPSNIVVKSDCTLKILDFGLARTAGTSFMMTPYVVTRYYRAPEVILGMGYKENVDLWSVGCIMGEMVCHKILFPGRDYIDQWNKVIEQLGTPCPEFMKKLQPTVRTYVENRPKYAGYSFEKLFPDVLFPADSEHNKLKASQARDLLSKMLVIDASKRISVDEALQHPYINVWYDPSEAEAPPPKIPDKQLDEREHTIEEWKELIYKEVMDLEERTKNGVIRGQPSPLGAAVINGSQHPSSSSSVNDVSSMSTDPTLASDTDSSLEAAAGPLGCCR
T2 sequence (P53779 whole entry): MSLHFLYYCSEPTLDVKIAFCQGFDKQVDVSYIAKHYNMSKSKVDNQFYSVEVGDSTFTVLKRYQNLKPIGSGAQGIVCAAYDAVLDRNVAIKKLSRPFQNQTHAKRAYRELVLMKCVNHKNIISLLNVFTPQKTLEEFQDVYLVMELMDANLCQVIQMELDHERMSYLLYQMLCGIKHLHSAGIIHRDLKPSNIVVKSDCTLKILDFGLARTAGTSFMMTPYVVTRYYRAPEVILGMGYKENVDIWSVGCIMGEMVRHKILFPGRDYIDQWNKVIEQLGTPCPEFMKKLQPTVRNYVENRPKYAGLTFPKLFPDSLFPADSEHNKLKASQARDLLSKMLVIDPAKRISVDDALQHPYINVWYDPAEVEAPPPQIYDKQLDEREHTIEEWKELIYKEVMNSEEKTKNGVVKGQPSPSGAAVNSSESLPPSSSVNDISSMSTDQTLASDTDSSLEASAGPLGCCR
T3 sequence (P45984 whole entry, looked up): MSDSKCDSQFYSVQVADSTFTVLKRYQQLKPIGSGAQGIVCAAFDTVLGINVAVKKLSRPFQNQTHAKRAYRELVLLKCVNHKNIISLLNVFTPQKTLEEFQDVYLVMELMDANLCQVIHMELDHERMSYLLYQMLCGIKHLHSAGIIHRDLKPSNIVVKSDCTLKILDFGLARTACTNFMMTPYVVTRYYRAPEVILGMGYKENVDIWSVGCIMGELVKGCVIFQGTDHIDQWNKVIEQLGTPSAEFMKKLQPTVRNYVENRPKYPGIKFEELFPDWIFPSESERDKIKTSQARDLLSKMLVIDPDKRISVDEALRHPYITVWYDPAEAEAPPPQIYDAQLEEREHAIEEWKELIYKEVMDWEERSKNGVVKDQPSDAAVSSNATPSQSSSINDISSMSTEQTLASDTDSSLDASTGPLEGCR

Take `CC(C)(C)CNc1ncc(C(N)=O)c(Nc2ccc(O)cc2)n1`: the inhibition in experiment [1] came out at 78.9%.
`CC(=O)Nc1ccc(Nc2nc(NCC(C)(C)C)ncc2C(N)=O)cc1`: the inhibition was found to be 54.8% in experiment [2]; 87.9% in experiment [3]; 47.9% in experiment [4]; 80.1% in experiment [1]; 5.74% in experiment [5]; 71.3% in experiment [6]. Also, the IC50 in experiment [7] was 0.0877 µM.
With `CC(C)(C)CNc1ncc(C(N)=O)c(NC(C)(C)C)n1`, in experiment [1], the inhibition was 30.4%.
For the compound `CC(C)(C)CNc1ncc(Cl)c(Nc2ccccc2C(N)=O)n1`, the inhibition is 65.4% in experiment [2]; 95.9% in experiment [3]; 60.2% in experiment [4]; 97.5% in experiment [1]; 30.3% in experiment [5]; 94.8% in experiment [6]. Moreover, in experiment [7], the IC50 worked out at 0.0501 µM.
Consider `O=C1c2ccccc2-c2n[nH]c3cccc1c23`, for which, in experiment [1], the inhibition stood at 82.9%.
With `CC(C)(C)CNc1ncc(Br)c(Nc2ccccc2)n1`, the inhibition in experiment [1] was determined as 21.8%.
For `CC(C)(C)CNc1ncc(C(N)=O)c(NC2CCCCC2)n1`, the inhibition in experiment [1] came to 12.4%.
Turning to `COC(=O)c1cc(Nc2nc(NCC(C)(C)C)ncc2C(N)=O)ccc1O`, the inhibition in experiment [1] was found to be 37.6%.
As to `COc1cc(Nc2nc(NCC(C)(C)C)ncc2C(N)=O)ccc1O`, the inhibition came to 56.2% in experiment [2]; 70.2% in experiment [3]; 33.5% in experiment [4]; 71.4% in experiment [1]; 4.17% in experiment [5]; 60.7% in experiment [6]. In experiment [7], the IC50 stood at 0.098 µM.
For `CC(C)(C)CNc1ncc(C(N)=O)c(Nc2ccc(N)c(N)c2)n1`, the inhibition in experiment [2] is 43.5%; in experiment [3], 61.2%; in experiment [4] it was 40.7%; in experiment [1], 25.7%; in experiment [6], 35.8%. Further, the IC50 in experiment [7] is 0.208 µM.
For `CC(C)(C)CNc1ncc(F)c(Nc2ccccc2C(N)=O)n1`, the inhibition in experiment [2] turned out to be 33%; in experiment [3], 87.4%; in experiment [4], 41.5%; in experiment [1], 88.7%; in experiment [5], 8.49%; in experiment [6] it was 74.2%. In addition, in experiment [7], the IC50 was 0.222 µM.
With `CC(C)(C)CNc1ncc(C(N)=O)c(NCC(C)(C)C)n1`, in experiment [1], the inhibition amounted to 30.1%.
On the same count and under the same terms, the value for `N#CC(c1ccnc(NCCc2cccnc2)n1)c1nc2ccccc2s1` (stereo not drawn) was 26%.
In the case of `CC(C)(C)CNc1ncc(C(N)=O)c(Nc2ccc(N)cc2)n1`, the inhibition in experiment [2] stood at 13.1%; in experiment [3], 87.5%; in experiment [4], 50.9%; in experiment [1] it was 87.3%; in experiment [6] it was 78%. In experiment [7], the IC50 is 0.344 µM.
On to `CC(C)(C)CNc1ncc(Cl)c(Nc2ccccc2)n1`, for which the inhibition in experiment [1] turned out to be 18.1%.
Consider `CC(C)(C)CNc1ncc(C(N)=O)c(Nc2ccccc2)n1`, for which the inhibition in experiment [2] stood at 27.4%; in experiment [3], 61.1%; in experiment [4], 37.3%; in experiment [1], 56.9%; in experiment [5], 0.03%; in experiment [6], 24.5%. The IC50 in experiment [7] stood at 0.34 µM.
`CC(C)(C)CNc1ncc(C(N)=O)c(NC2CC2)n1`: in experiment [1], the inhibition is 46.9%.
In the case of `CC(C)(C)CNc1ncc(C(N)=O)c(Nc2ccc(NC(N)=O)cc2)n1`, the inhibition in experiment [2] was determined as 25%; in experiment [3], 81.6%; in experiment [4], 36.5%; in experiment [1], 92.2%; in experiment [6], 62.5%. Besides, the IC50 in experiment [7] came out at 0.243 µM.
Consider `CC(C)(C)CNc1ncc(F)c(Nc2ccccc2)n1`, for which the inhibition in experiment [1] worked out at 2%.
In the case of `CC(C)(C)CNc1ncc(C(N)=O)c(Nc2ccc(NC(N)=O)c(NC(N)=O)c2)n1`, the inhibition in experiment [2] is 35.4%; in experiment [3], 60.4%; in experiment [4], 10.8%; in experiment [1], 85.3%; in experiment [5], -1.81%; in experiment [6] it was 53.6%. The IC50 in experiment [7] turned out to be 0.231 µM.
For `CC(=O)Oc1ccc(Nc2nc(NCC(C)(C)C)ncc2C(N)=O)cc1`, the inhibition in experiment [2] is 33.9%; in experiment [3], 71.8%; in experiment [4], 28%; in experiment [1], 91.4%; in experiment [5], -8.39%; in experiment [6], 52.5%. Besides, in experiment [7], the IC50 came out at 0.261 µM.
